Laboratory results taken from PMC9378861, “Formation and metabolism of 6-(1-acetol)-8-(1-acetol)-rutin in foods and in vivo, and their cytotoxicity” (Frontiers in Nutrition, 2022).
Values joined by “and” are separate entries in the source; they are usually repeats but may differ in a detail not shown here. Equal entries are not always repeated.

What was measured:
[1] = rats, 15 min after administration of rutin; cited from earlier work
[2] = Rutin-MGO adducts in tissues, urine and feces of rats 24 h after oral rutin; assay type: in vivo, Sprague–Dawley rats; conditions: for Concentration in feces: feces collected within 24 h after rutin 100 mg/kg BW oral; for Concentration in urine: urine collected within 24 h after rutin 100 mg/kg BW oral
Description: (§1) The animals were treated as described in the study by Chen et al. ([22]). In brief, five 7 weeks old male Sprague–Dawley rats (190–220 g) were exposed to rutin (100 mg/kg BW) by oral gavage after fasting for 16 h. The plasma samples were collected at 0.25, 0.5, 1, 2, 4, 6, 8, 10, and 24 h after the administration, and stored under −80°C until analysis. The feces and urine were collected with the metabolic cages throughout the 24 h period. At 24 h, the rats were sacrificed after anesthetization, and the tissues including stomach, intestine (divided into duodenum, jejunum, ileum, caecum, and colon), heart, liver, kidney, and brain were taken and frozen immediately in liquid nitrogen and transferred to a deep freezer (−80°C) for storage before analysis. The procedures of the animal study followed the protocol by the Institutional Animal Care and Use Committee of the Laboratory Animal Center of Jinan University.
(§2) The plasma samples were treated as described by Chen et al. ([22]). About half gram of feces and tissue samples were weight accurately, and homogenized with 2 mL saline on an ice-bath. The homogenates were transferred to a centrifuge tube, added with 1 mL PBS (pH 5.0, 0.05 M) and 100 μL ascorbic acid (150 mg/mL), and extracted with 3 mL of methanol twice. The supernatants were combined after centrifugation at 13,000 × g under 4 °C for 10 min, evaporated to dryness, re-dissolved in 500 μL of 50% aqueous methanol containing 0.1% formic acid (v/v), and filtered through a 0.22 μm membrane for HPLC-MS/MS analysis. The adducts in 200 μL of urine were extracted twice with 1 mL methanol. The supernatants were collected after centrifugation at 13,000 × g under 4°C for 10 min, and evaporated to dryness. The residues were dissolved in 200 μL of 50% aqueous methanol containing 0.1% formic acid (v/v), and filtered through a 0.22 μm membrane for HPLC-MS/MS analysis. A sample of 1 μL was injected into an Agilent Technologies 1,260 Infinity HPLC (Agilent Technologies, CA, USA) interfaced to an AB 4500 Q-Trap mass spectrometer (AB Sciex, MA, USA) in the negative mode for quantification of adducts A and B, respectively. The eluting programs for HPLC analysis, and the operation conditions of mass spectrometer refers to those established by Chen et al. ([22]). […] Moreover, as the information on the occurrence levels of 6-(1,2-propanedione)-8-(1-acetol)-rutin, 6-(1-acetol)-8-(1,2-propanedione)-rutin, and 6-(1,2-propanedione)-8-(1,2-propanedione)-rutin discovered in the last study was still missing, the concentration of these oxidized rutin-MGO adducts in various tissues and urine and feces were also determined in this study. The qualification and quantification fragmentation transitions of these adducts refers to those provided previously ([22]).

[3] = cited from earlier work; for Elimination rate on MGO (MGO scavenged): incubated with MGO at 37°C for 24 h
[4] = system: human gastric epithelial cell line (GES-1); assay: Cytotoxicity by MTT assay, GES-1; assay type: cell-based; conditions: 24 h
[5] = Plasma concentration of rutin-MGO adducts in rats after oral rutin (HPLC-MS/MS, MRM); assay type: in vivo, Sprague–Dawley rats
Description: as §1, §2

[6] = system: human umbilical vein endothelial (HUVEC) cell; assay: Cytotoxicity by MTT assay, HUVEC; assay type: cell-based; conditions: 1 mM, 24 h
[7] = system: human colon carcinoma cell line (Caco-2); assay: Cytotoxicity by MTT assay, Caco-2; assay type: cell-based; conditions: Caco-2, 1 mM, 24 h
AGEs = conditions: cited from earlier work
[8] = design: method as in PMID 19916501; conditions: anesthetized, mesenteric lymphatic/duodenum-cannulated rat model; cited from earlier work
[9] = 24 h after rutin 100 mg/kg BW oral
[10] = rutin 100 mg/kg BW oral gavage, time point 0.25 h
[11] = rutin 100 mg/kg BW oral gavage, time point 1.00 h
[12] = rutin 100 mg/kg BW oral gavage, time point 2.00 h

CC(=O)C(=O)c1c(O)c(C(O)C(C)=O)c(O)c2c(=O)c(O[C@@H]3O[C@H](CO[C@@H]4O[C@@H](C)[C@H](O)[C@@H](O)[C@H]4O)[C@@H](O)[C@H](O)[C@H]3O)c(-c3ccc(O)c(O)c3)oc12 (stereo partly shown) [6-(1-acetol)-8-(1,2-propanedione)-rutin]
Plasma concentration of oxidized rutin-MGO adducts [1]: 1.61 µg/L | Concentration in brain [2, 9]: 0.45 ± 0.28 µg/kg | Concentration in colon [2, 9]: trace | Concentration in heart [2, 9]: trace | Concentration in ileum [2, 9]: trace | Concentration in kidney [2, 9]: 0.12 ± 0.02 µg/kg | Concentration in liver [2, 9]: trace | Concentration in stomach [2, 9]: trace | Concentration in feces [2]: 2.23 ± 0.54 µg/kg | Concentration in urine [2]: 0.09 µg/L and 0.09 ± 0.00 µg/L

O=C(O[C@@H]1Cc2c(O)cc(O)cc2O[C@@H]1c1cc(O)c(O)c(O)c1)c1cc(O)c(O)c(O)c1 [(–)-epigallocatechin gallate]
Elimination rate on MGO (MGO scavenged) [3]: 99%

CC(=O)C(O)c1c(O)c(C(O)C(C)=O)c2oc(-c3ccc(O)c(O)c3)c(OC3OC(COC4OC(C)C(O)C(O)C4O)C(O)C(O)C3O)c(=O)c2c1O (stereo not shown) [Adduct B, 6-(1-acetol)-8-(1-acetol)-rutin]
Reduction of cell viability (cells dead) ([4]; GES-1, 1 mM): 25% | Plasma concentration [5, 10]: 6.40 µg/L and 6.40 ± 3.90 µg/L | Plasma concentration [5, 11]: trace | Plasma concentration [5, 12]: trace | Plasma concentration ([5]; rutin 100 mg/kg BW oral gavage, time point 8.00 h): trace | Plasma concentration ([5]; rutin 100 mg/kg BW oral gavage, time point 24.00 h): trace | Reduction of cell viability (cells dead) [6]: 16% | Concentration in kidney [2, 9]: trace | Concentration in feces [2]: Trace | Reduction of cell viability (cells dead) [7]: 18%

CC(=O)C(=O)c1c(O)c(C(=O)C(C)=O)c2oc(-c3ccc(O)c(O)c3)c(O[C@@H]3O[C@H](CO[C@@H]4O[C@@H](C)[C@H](O)[C@@H](O)[C@H]4O)[C@@H](O)[C@H](O)[C@H]3O)c(=O)c2c1O [6-(1,2-propanedione)-8-(1,2-propanedione)-rutin]
Plasma concentration of oxidized rutin-MGO adducts [1]: 1.02 µg/L | Concentration in brain [2, 9]: 0.12 ± 0.02 µg/kg | Concentration in caecum [2, 9]: trace | Concentration in heart [2, 9]: 0.14 ± 0.09 µg/kg | Concentration in ileum [2, 9]: trace | Concentration in kidney [2, 9]: 0.16 ± 0.04 µg/kg | Concentration in liver [2, 9]: 0.09 µg/kg and 0.09 ± 0.01 µg/kg | Concentration in stomach [2, 9]: 0.10 µg/kg and 0.10 ± 0.01 µg/kg | Concentration in feces [2]: 0.26 ± 0.18 µg/kg | Content in feces, folds lower than 6-(1,2-propanedione)-8-(1-acetol)-rutin and 6-(1-acetol)-8-(1,2-propanedione)-rutin ([2]; feces within 24 h after rutin 100 mg/kg BW oral): 6–9 folds | Concentration in urine [2]: 0.10 µg/L and 0.10 ± 0.01 µg/L

CC(=O)C(O)c1c(O)c(C(O)C(C)=O)c2oc(-c3ccc(O)c(O)c3)c(OC3OC(COC4OC(C)C(O)C(O)C4O)C(O)C(O)C3O)c(=O)c2c1O (stereo not shown) [Adduct A, 6-(1-acetol)-8-(1-acetol)-rutin]
Reduction of cell viability (cells dead) ([4]; GES-1, 1 mM): 27% | concentration at 0.25 h ([5]; male, Sprague-Dawley, rat, plasma, oral, rutin 100 mg/kg BW oral gavage, time point 0.25 h): 9.4 ng/mL | Plasma concentration [5, 10]: 9.40 ± 6.37 µg/L | Plasma concentration [5, 11]: trace | Plasma concentration [5, 12]: trace | Plasma concentration ([5]; rutin 100 mg/kg BW oral gavage, time point 10.00 h): trace | Reduction of cell viability (cells dead) [6]: 19% | Concentration in kidney [2, 9]: trace | Concentration in feces [2]: Trace | Reduction of cell viability (cells dead) [7]: 19%

CC(=O)C(=O)c1c(O)c(C(O)C(C)=O)c2oc(-c3ccc(O)c(O)c3)c(OC3OC(COC4OC(C)C(O)C(O)C4O)C(O)C(O)C3O)c(=O)c2c1O (stereo not shown) [6-(1,2-propanedione)-8-(1-acetol)-rutin]
Plasma concentration of oxidized rutin-MGO adducts [1]: 2.38 µg/L | Concentration in brain [2, 9]: 0.11 ± 0.02 µg/kg | Concentration in heart [2, 9]: 0.09 ± 0.03 µg/kg | Concentration in ileum [2, 9]: trace | Concentration in kidney [2, 9]: 0.07 ± 0.01 µg/kg | Concentration in liver [2, 9]: trace | Concentration in feces [2]: 1.54 ± 0.49 µg/kg | Concentration in urine [2]: trace

O=c1cc(-c2ccc(O)cc2)oc2cc(O)cc(O)c12 [apigenin]
Elimination rate on MGO (MGO scavenged) [3]: 40%

Oc1cc(O)c2c(c1)O[C@H](c1ccc(O)c(O)c1)[C@H](O)C2 [epicatechin]
Elimination rate on MGO (MGO scavenged) [3]: 99%

COc1ccc([C@@H]2CC(=O)c3c(O)cc(O)cc3O2)cc1O [hesperetin]
Elimination rate on MGO (MGO scavenged) [3]: 63%

O=C(CCc1ccc(O)cc1)c1c(O)cc(O)cc1O [phloretin]
Elimination rate on MGO (MGO scavenged) [3]: 99%

C[C@@H]1O[C@@H](OC[C@H]2O[C@@H](Oc3c(-c4ccc(O)c(O)c4)oc4cc(O)cc(O)c4c3=O)[C@H](O)[C@@H](O)[C@@H]2O)[C@H](O)[C@H](O)[C@H]1O [rutin, quercetin-3-O-rutinoside]
MGO eliminated ([3]; rutin 0.5 mM with MGO 0.5 mM, 37 °C, 24 h, simulated physiological condition): 50% | Reduction of cell viability (cells dead) ([4]; GES-1, 1 mM): 16% | Inhibitory effect on the formation of AGEs in glycation reaction (AGEs): more than 90% | Reduction of cell viability (cells dead) [6]: 12% | Reduction of cell viability (cells dead) [7]: 15% | Time at which plasma concentration reached maximum [8]: 60 min

CC(=O)C=O [MGO, Methylglyoxal]
Growth of the cells inhibited ([4]; GES-1, 600 μM): more than 50% | Cells left alive ([4]; GES-1, 1 mM): 17% | Growth of the cells inhibited ([4]; GES-1, 200–400 μM): 18–19%

CC(=O)C(O)c1c(O)c(C(O)C(C)=O)c2oc(-c3ccc(O)c(O)c3)c(O[C@@H]3O[C@H](CO[C@@H]4O[C@@H](C)[C@H](O)[C@@H](O)[C@H]4O)[C@@H](O)[C@H](O)[C@H]3O)c(=O)c2c1O (stereo partly shown) [6-(1-acetol)-8-(1-acetol)-rutin]
Total (maximum) level in plasma, sum of adducts A and B ([5]; 15 min after oral rutin 100 mg/kg BW): 15.80 µg/L
